system: HBV rcDNA in HepDE19 cells; assay: HepDE19 assay with bDNA quantitation of HBV rcDNA; assay type: cell-based, hepatitis B virus; conditions: HepDE19 assay, inhibition of rcDNA formation, bDNA quantitation; read-out: DE-19bDNA EC50

SMILES | EC50 [µM]
CN(C(=O)c1cc2c(C(F)F)c(F)ccc2[nH]1)C1COCc2[nH]c(=O)c3cc(F)ccc3c21 (single isomer, unassigned) [Compound 255, 4-(Difluoromethyl)-5-fluoro-N-(8-fluoro-6-oxo-1,4,5,6-tetrahydro-2H-pyrano[3,4-c]isoquinolin-1-yl)-N-methyl-1H-indole-2-carboxamide] | 0.68
CN(C(=O)c1cc2c(F)cccn2c1)C1CS(=O)(=O)Cc2[nH]c(=O)c3cc(F)c(F)cc3c21 (single isomer, unassigned) [Compound 151, N-(8,9-Difluoro-3,3-dioxido-6-oxo-2,4,5,6-tetrahydro-1H-thiopyrano[3,4-c]isoquinolin-1-yl)-8-fluoro-N-methylindolizine-2-carboxamide] | 3.61
CN(C(=O)c1cc2c(F)c(F)ccc2[nH]1)C1COCc2[nH]c(=O)c3cc(F)c(F)cc3c21 (single isomer, unassigned) [Compound 45, N-(8,9-Difluoro-6-oxo-1,4,5,6-tetrahydro-2H-pyrano[3,4-c]isoquinolin-1-yl)-4,5-difluoro-N-methyl-1H-indole-2-carboxamide] | 0.31
CN(C(=O)c1cc2cc(F)c(C(F)F)cc2[nH]1)C1COCc2[nH]c(=O)c3cc(F)ccc3c21 (single isomer, unassigned) [Compound 218, 6-(Difluoromethyl)-5-fluoro-N-(8-fluoro-6-oxo-1,4,5,6-tetrahydro-2H-pyrano[3,4-c]isoquinolin-1-yl)-N-methyl-1H-indole-2-carboxamide] | 0.03
CN(C(=O)c1cc2c(F)cccn2c1)C1CNCc2[nH]c(=O)c3cc(F)c(F)cc3c21 (single isomer, unassigned) [Compound 161, N-(8,9-Difluoro-6-oxo-1,2,3,4,5,6-hexahydrobenzo[c][1,7]naphthyridin-1-yl)-8-fluoro-N-methylindolizine-2-carboxamide] | 0.02
CN(C(=O)c1cc(F)c(Br)c(F)c1)C1CNCc2[nH]c(=O)c3cc(F)c(F)cc3c21 (single isomer, unassigned) [Compound 164, 4-Bromo-N-(8,9-difluoro-6-oxo-1,2,3,4,5,6-hexahydrobenzo[c][1,7]naphthyridin-1-yl)-3,5-difluoro-N-methylbenzamide] | 2.88
CN(C(=O)c1cc2c(C(F)F)cccc2[nH]1)C1CNCc2[nH]c(=O)c3cc(F)ccc3c21 (single isomer, unassigned) [Compound 209, N-(8-Fluoro-6-oxo-1,2,3,4,5,6-hexahydrobenzo[c][1,7]naphthyridin-1-yl)-4-(difluoromethyl)-N-methyl-1H-indole-2-carboxamide] | 4.4
CN(C(=O)c1cc2sc(F)cc2[nH]1)C1COCc2[nH]c(=O)c3cc(F)ccc3c21 (single isomer, unassigned) [Compound 497, 2-fluoro-N-(8-fluoro-6-oxo-1,4,5,6-tetrahydro-2H-pyrano[3,4-c]isoquinolin-1-yl)-N-methyl-4H-thieno[3,2-b]pyrrole-5-carboxamide] | 1.2
CN(C(=O)c1ccc2cccn2c1)C1CNCc2[nH]c(=O)c3cc(F)c(F)cc3c21 (single isomer, unassigned) [Compound 391, N-(8,9-difluoro-6-oxo-1,2,3,4,5,6-hexahydrobenzo[c][1,7]naphthyridin-1-yl)-N-methylindolizine-6-carboxamide] | 22
CN(C(=O)c1cc2cccc(F)c2[nH]1)C1CNCc2[nH]c(=O)c3cc(F)c(F)cc3c21 (single isomer, unassigned) [Compound 113, N-(8,9-Difluoro-6-oxo-1,2,3,4,5,6-hexahydrobenzo[c][1,7]naphthyridin-1-yl)-7-fluoro-N-methyl-1H-indole-2-carboxamide] | 0.43
CN(C(=O)C1Cc2c(F)cc(F)cc2N1)C1COCc2[nH]c(=O)c3cc(F)c(F)cc3c21 (centres unmarked) [Compound 14, N-(8,9-Difluoro-6-oxo-1,4,5,6-tetrahydro-2H-pyrano[3,4-c]isoquinolin-1-yl)-4,6-difluoro-N-methylindoline-2-carboxamide] | 0.04
CN(C(=O)c1cc2cc(F)c(F)cc2[nH]1)C1CNCc2[nH]c(=O)c3cc(F)c(F)cc3c21 (single isomer, unassigned) [Compound 116, N-(8,9-Difluoro-6-oxo-1,2,3,4,5,6-hexahydrobenzo[c][1,7]naphthyridin-1-yl)-5,6-difluoro-N-methyl-1H-indole-2-carboxamide] | 1.3
CC(=O)N1Cc2[nH]c(=O)c3cc(F)ccc3c2C(N(C)C(=O)c2cc3ccccc3[nH]2)C1 (single isomer, unassigned) [Compound 69, N-(3-Acetyl-8-fluoro-6-oxo-1,2,3,4,5,6-hexahydrobenzo[c][1,7]naphthyridin-1-yl)-N-methyl-1H-indole-2-carboxamide] | 21

same assay, conditions: Hepatitis B virus, HepDE19, HepDE19 assay, inhibition of rcDNA formation, bDNA quantitation; read-out: DE-19bDNA EC50

SMILES | EC50 [µM]
CN(C(=O)c1cccc(Cl)c1)[C@@H]1COCc2[nH]c(=O)c3cc(F)c(F)cc3c21 [Compound 128, (S)-3-Chloro-N-(8,9-difluoro-6-oxo-1,4,5,6-tetrahydro-2H-pyrano[3,4-c]isoquinolin-1-yl)-N-methylbenzamide] | 0.09
CN(C(=O)c1cc2c(C#N)cc(F)cc2[nH]1)[C@@H]1COCc2[nH]c(=O)c3cc(F)c(F)cc3c21 [Compound 341, (S)-4-Cyano-N-(8,9-difluoro-6-oxo-1,4,5,6-tetrahydro-2H-pyrano[3,4-c]isoquinolin-1-yl)-6-fluoro-N-methyl-1H-indole-2-carboxamide] | 0.03
CN(C(=O)C1CN(c2ccsc2)C1)[C@@H]1COCc2[nH]c(=O)c3cc(F)c(F)cc3c21 [Compound 282, (S)-N-(8,9-Difluoro-6-oxo-1,4,5,6-tetrahydro-2H-pyrano[3,4-c]isoquinolin-1-yl)-N-methyl-1-(thiophen-3-yl)azetidine-3-carboxamide] | 0.29
CN(C(=O)c1cc2cc(C#N)ccc2[nH]1)C1CNCc2[nH]c(=O)c3cc(F)c(F)cc3c21 (single isomer, unassigned) [Compound 406, 5-Cyano-N-(8,9-difluoro-6-oxo-1,2,3,4,5,6-hexahydrobenzo[c][1,7]naphthyridin-1-yl)-N-methyl-1H-indole-2-carboxamide] | 0.19
CN(C(=O)[C@H](O)Cc1ccccc1)[C@@H]1COCc2[nH]c(=O)c3cc(F)c(F)cc3c21 [Compound 88, (R)-N-((S)-8,9-Difluoro-6-oxo-1,4,5,6-tetrahydro-2H-pyrano[3,4-c]isoquinolin-1-yl)-2-hydroxy-N-methyl-3-phenylpropanamide] | 0.48
CN(C(=O)c1cn2cc(Cl)ccc2n1)[C@@H]1COCc2[nH]c(=O)c3cc(F)c(F)cc3c21 [Compound 51, (S)-6-Chloro-N-(8,9-difluoro-6-oxo-1,4,5,6-tetrahydro-2H-pyrano[3,4-c]isoquinolin-1-yl)-N-methylimidazo[1,2-a]pyridine-2-carboxamide] | 1.3
CN(C(=O)c1ccc(C(F)(F)F)c(F)c1)C1COCc2[nH]c(=O)c3cc(C#N)ccc3c21 (racemic) [Compound 134, N-(8-Cyano-6-oxo-1,4,5,6-tetrahydro-2H-pyrano[3,4-c]isoquinolin-1-yl)-3-fluoro-N-methyl-4-(trifluoromethyl)benzamide] | 2.8
CN(C(=O)c1nc2ccccc2o1)[C@@H]1COCc2[nH]c(=O)c3cc(F)c(F)cc3c21 [Compound 124, (S)-N-(8,9-Difluoro-6-oxo-1,4,5,6-tetrahydro-2H-pyrano[3,4-c]isoquinolin-1-yl)-N-methylbenzo[d]oxazole-2-carboxamide] | 1.1
Cc1nn(C(F)F)c2ccc(C(=O)N(C)[C@@H]3COCc4[nH]c(=O)c5cc(F)c(F)cc5c43)cc12 [Compound 417, (S)-N-(8,9-Difluoro-6-oxo-1,4,5,6-tetrahydro-2H-pyrano[3,4-c]isoquinolin-1-yl)-1-(difluoromethyl)-N,3-dimethyl-1H-indazole-5-carboxamide] | 0.02
CN(C(=O)c1cnc(C(F)(F)F)c(F)c1)[C@@H]1COCc2[nH]c(=O)c3cc(F)c(F)cc3c21 [Compound 412, (S)-N-(8,9-Difluoro-6-oxo-1,4,5,6-tetrahydro-2H-pyrano[3,4-c]isoquinolin-1-yl)-5-fluoro-N-methyl-6-(trifluoromethyl)nicotinamide] | 0.03
CN([C@@H]1COCc2[nH]c(=O)c3cc(F)c(F)cc3c21)S(=O)(=O)c1ccc(F)c(C#N)c1 [Compound 146, (S)-3-Cyano-N-(8,9-difluoro-6-oxo-1,4,5,6-tetrahydro-2H-pyrano[3,4-c]isoquinolin-1-yl)-4-fluoro-N-methylbenzenesulfonamide] | 23
CN(C(=O)c1cccc(NS(C)(=O)=O)c1)[C@@H]1COCc2[nH]c(=O)c3cc(F)c(F)cc3c21 [Compound 297, (S)-N-(8,9-Difluoro-6-oxo-1,4,5,6-tetrahydro-2H-pyrano[3,4-c]isoquinolin-1-yl)-N-methyl-3-(methylsulfonamido)benzamide] | 21
CN(C(=O)c1cc2sc(Cl)cc2[nH]1)[C@@H]1COC(=O)c2[nH]c(=O)c3cc(F)c(F)cc3c21 [Compound 477, (S)-2-Chloro-N-(8,9-difluoro-4,6-dioxo-1,4,5,6-tetrahydro-2H-pyrano[3,4-c]isoquinolin-1-yl)-N-methyl-4H-thieno[3,2-b]pyrrole-5-carboxamide] | 0.02
CN(C(=O)c1ccc(Br)c(F)c1F)[C@@H]1COCc2[nH]c(=O)c3cc(F)c(F)cc3c21 [Compound 244, (S)-4-Bromo-N-(8,9-difluoro-6-oxo-1,4,5,6-tetrahydro-2H-pyrano[3,4-c]isoquinolin-1-yl)-2,3-difluoro-N-methylbenzamide] | 0.08
CN(C(=O)c1ccc(-c2ccc(F)cc2)c(F)c1)[C@@H]1COCc2[nH]c(=O)c3cc(F)c(F)cc3c21 [Compound 262, (S)-N-(8,9-Difluoro-6-oxo-1,4,5,6-tetrahydro-2H-pyrano[3,4-c]isoquinolin-1-yl)-2,4′-difluoro-N-methyl-[1,1′-biphenyl]-4-carboxamide] | 17.2
CN(C(=O)c1cc2cc(F)c(F)cc2[nH]1)[C@@H]1CCCc2[nH]c(=O)c3cc(F)c(F)cc3c21 [Compound 481, (R)-N-(8,9-difluoro-6-oxo-1,2,3,4,5,6-hexahydrophenanthridin-1-yl)-5,6-difluoro-N-methyl-1H-indole-2-carboxamide] | 0.01

Source: patent US20240228504A1, “SUBSTITUTED TRICYCLIC AMIDES, ANALOGUES THEREOF, AND METHODS USING SAME” (Arbutus Biopharma Corporation, priority 2020, published 2024)
